{"source": "patent US11572590B2", "about": "“Methods for evaluating tumor cell spheroids using 3D microfluidic cell culture device” (Dana-Farber Cancer Institute, Inc., priority 2017, dated 2023)", "assay_in_all_cases": "SelectScreen Kinase Profiling, single point inhibition and IC50 for off-target kinases", "format_in_all_cases": "biochemical", "key": {"off-target kinases [1]": {"molecular_target": "off-target kinases (Homo sapiens, UniProt P08069)", "sequence (P08069 31-1367)": "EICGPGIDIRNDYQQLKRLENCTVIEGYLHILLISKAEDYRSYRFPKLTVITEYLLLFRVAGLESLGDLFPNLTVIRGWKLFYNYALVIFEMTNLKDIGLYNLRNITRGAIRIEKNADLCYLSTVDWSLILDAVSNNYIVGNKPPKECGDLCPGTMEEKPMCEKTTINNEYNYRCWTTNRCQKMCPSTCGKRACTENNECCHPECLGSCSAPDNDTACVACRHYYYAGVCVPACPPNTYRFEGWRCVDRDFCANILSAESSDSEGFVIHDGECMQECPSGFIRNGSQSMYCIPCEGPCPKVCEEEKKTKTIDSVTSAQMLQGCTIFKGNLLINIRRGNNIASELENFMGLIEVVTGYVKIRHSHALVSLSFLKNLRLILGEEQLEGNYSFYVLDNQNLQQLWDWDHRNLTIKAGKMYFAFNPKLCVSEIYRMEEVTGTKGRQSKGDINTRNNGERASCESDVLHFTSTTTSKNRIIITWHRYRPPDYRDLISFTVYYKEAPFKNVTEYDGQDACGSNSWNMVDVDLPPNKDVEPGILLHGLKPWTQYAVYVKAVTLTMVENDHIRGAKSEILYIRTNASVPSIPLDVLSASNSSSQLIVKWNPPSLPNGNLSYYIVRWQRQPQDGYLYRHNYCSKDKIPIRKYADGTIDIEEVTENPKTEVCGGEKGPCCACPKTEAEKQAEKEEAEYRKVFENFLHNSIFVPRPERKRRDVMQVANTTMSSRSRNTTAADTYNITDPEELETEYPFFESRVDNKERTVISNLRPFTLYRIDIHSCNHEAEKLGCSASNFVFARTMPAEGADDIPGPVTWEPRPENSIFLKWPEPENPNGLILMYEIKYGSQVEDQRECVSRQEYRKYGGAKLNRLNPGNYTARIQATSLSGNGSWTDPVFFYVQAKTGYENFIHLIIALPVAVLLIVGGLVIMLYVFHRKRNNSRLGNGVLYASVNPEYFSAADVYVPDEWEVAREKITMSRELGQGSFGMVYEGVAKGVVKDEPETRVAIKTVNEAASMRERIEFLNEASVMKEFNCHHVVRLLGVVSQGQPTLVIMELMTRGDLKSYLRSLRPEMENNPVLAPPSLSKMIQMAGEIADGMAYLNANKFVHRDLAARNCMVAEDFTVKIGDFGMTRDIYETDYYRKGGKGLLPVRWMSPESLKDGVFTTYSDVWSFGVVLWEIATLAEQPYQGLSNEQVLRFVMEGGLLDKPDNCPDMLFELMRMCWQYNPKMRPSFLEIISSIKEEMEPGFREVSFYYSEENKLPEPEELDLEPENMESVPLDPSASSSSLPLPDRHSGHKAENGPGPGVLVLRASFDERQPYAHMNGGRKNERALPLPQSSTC", "conditions": "IGF1R, ZLYTE, ATP Km app"}, "off-target kinases [2]": {"molecular_target": "off-target kinases (Homo sapiens, UniProt P29597)", "sequence (P29597 whole entry)": "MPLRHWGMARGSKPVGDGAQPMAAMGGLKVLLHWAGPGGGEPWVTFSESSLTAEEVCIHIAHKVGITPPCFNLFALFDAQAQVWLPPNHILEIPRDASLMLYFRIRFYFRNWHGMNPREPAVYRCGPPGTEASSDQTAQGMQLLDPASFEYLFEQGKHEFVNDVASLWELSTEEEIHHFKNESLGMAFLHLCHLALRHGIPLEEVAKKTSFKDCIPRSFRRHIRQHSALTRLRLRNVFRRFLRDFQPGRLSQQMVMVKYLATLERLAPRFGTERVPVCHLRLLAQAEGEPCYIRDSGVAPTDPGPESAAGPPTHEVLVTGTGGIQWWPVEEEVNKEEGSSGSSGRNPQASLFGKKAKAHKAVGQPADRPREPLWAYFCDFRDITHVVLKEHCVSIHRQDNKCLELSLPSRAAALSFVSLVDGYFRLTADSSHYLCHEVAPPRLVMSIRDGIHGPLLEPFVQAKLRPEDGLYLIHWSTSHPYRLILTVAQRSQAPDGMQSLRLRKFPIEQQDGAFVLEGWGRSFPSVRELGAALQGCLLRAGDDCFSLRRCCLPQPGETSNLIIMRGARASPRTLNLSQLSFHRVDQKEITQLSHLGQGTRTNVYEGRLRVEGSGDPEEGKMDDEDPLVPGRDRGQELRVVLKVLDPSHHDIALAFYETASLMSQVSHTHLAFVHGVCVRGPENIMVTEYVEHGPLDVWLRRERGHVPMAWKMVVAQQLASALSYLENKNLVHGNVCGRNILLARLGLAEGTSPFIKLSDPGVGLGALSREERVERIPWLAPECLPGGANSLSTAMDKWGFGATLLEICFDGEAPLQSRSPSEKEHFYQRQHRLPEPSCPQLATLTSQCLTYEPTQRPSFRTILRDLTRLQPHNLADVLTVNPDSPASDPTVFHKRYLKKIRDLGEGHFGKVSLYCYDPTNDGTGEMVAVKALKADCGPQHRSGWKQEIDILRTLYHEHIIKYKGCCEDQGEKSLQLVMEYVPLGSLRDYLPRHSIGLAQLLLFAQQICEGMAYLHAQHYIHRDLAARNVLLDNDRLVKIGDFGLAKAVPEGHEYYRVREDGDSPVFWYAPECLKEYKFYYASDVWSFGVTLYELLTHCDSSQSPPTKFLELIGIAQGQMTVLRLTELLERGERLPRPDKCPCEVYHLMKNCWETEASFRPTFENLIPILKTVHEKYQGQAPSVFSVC", "conditions": "TYK2, ATP Km app, ZLYTE"}, "off-target kinases [3]": {"molecular_target": "T1, off-target kinases (Homo sapiens, UniProt P51817)", "T1 sequence (P51817 1-358)": "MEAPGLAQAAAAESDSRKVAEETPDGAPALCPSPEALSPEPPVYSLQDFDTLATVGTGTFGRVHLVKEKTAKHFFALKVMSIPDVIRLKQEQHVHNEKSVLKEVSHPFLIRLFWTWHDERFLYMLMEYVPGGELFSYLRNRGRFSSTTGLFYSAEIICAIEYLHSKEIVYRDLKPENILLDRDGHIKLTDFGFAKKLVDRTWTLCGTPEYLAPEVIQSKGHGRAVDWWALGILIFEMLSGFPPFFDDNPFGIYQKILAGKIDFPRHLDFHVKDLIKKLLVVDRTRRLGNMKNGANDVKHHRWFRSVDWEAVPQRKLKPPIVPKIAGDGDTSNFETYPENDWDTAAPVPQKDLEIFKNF", "conditions": "PRKX, ZLYTE, ATP Km app"}, "off-target kinases [4]": {"molecular_target": "off-target kinases (Homo sapiens, UniProt Q13705)", "sequence (Q13705 19-512)": "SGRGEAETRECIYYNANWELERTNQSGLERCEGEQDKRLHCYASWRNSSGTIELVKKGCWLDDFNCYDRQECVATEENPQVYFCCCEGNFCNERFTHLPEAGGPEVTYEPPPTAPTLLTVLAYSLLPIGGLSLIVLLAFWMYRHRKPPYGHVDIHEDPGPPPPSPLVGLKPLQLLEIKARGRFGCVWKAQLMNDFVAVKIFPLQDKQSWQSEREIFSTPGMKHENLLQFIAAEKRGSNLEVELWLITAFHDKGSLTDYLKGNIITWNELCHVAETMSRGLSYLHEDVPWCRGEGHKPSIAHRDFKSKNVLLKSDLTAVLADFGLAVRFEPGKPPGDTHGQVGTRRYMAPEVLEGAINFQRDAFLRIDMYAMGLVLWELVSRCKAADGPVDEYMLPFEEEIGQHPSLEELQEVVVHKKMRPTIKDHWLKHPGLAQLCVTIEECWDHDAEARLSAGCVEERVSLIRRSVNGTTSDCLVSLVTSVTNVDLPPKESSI", "conditions": "ACVR2B, LanthaScreen Binding"}, "off-target kinases [5]": {"molecular_target": "T2, off-target kinases (Homo sapiens, UniProt Q9UPZ9)", "T2 sequence (Q9UPZ9 1-632)": "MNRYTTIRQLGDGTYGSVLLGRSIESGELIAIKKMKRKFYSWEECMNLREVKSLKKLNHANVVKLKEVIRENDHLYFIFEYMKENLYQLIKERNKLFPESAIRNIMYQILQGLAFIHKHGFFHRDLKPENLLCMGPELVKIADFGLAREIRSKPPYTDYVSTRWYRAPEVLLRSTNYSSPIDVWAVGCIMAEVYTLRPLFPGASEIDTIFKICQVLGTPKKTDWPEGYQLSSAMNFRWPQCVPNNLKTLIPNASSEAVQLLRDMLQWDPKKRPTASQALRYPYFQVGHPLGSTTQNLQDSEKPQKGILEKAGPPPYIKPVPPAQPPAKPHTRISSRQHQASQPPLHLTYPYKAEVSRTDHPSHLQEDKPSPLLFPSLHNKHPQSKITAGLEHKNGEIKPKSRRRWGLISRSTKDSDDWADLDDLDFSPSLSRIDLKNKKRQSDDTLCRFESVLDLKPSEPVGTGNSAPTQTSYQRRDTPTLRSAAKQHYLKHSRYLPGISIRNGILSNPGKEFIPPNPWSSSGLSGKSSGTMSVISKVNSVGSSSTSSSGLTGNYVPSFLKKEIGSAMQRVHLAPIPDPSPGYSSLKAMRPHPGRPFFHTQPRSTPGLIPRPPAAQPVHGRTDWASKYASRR", "conditions": "ICK, LanthaScreen Binding"}}, "note": "Where two headings read alike, the source gives them in different places.", "data": [{"smiles": "N#Cc1cc(-c2ncnc(Nc3ccc(N4CCN(C5COC5)CC4)cc3)n2)ccc1OC1CCOCC1", "note": "[Compound 1, 5-(4-((4-(4-(oxetan-3-yl)piperazin-1-yl)phenyl)amino)-1,3,5-triazin-2-yl)-2-((tetrahydro-2H-pyran-4-yl)oxy)benzonitrile]", "values": [{"measurement": "inhibition", "setting": "off-target kinases [1]; read-out: % Inhibition 1", "value": 1, "unit": "%"}, {"measurement": "inhibition", "setting": "off-target kinases [1]; read-out: % Inhibition 2", "value": 2, "unit": "%"}, {"measurement": "inhibition", "setting": "off-target kinases [1]; read-out: % Inhibition Avg", "value": 1, "unit": "%"}, {"measurement": "inhibition", "setting": "off-target kinases [2]; read-out: % Inhibition 1", "value": 65, "unit": "%"}, {"measurement": "inhibition", "setting": "off-target kinases [2]; read-out: % Inhibition 2", "value": 64, "unit": "%"}, {"measurement": "inhibition", "setting": "off-target kinases [2]; read-out: % Inhibition Avg", "value": 64, "unit": "%"}, {"measurement": "inhibition", "setting": "off-target kinases [3]; read-out: % Inhibition 1", "value": 22, "unit": "%"}, {"measurement": "inhibition", "setting": "off-target kinases [3]; read-out: % Inhibition 2", "value": 30, "unit": "%"}, {"measurement": "inhibition", "setting": "off-target kinases [3]; read-out: % Inhibition Avg", "value": 26, "unit": "%"}, {"measurement": "inhibition", "setting": "off-target kinases [4]; read-out: % Inhibition 1", "value": 27, "unit": "%"}, {"measurement": "inhibition", "setting": "off-target kinases [4]; read-out: % Inhibition 2", "value": 31, "unit": "%"}, {"measurement": "inhibition", "setting": "off-target kinases [4]; read-out: % Inhibition Avg", "value": 29, "unit": "%"}, {"measurement": "inhibition", "setting": "off-target kinases [5]; read-out: % Inhibition 1", "value": 22, "unit": "%"}, {"measurement": "inhibition", "setting": "off-target kinases [5]; read-out: % Inhibition 2", "value": 22, "unit": "%"}, {"measurement": "inhibition", "setting": "off-target kinases [5]; read-out: % Inhibition Avg", "value": 22, "unit": "%"}]}]}
